In the oligonucleotide strings, read from the 5' end, every base follows the letter of its sugar. An asterisk marks phosphorothioate; unmarked linkages are phosphodiester. Other units and linkages are bracketed, terminal groups are in braces. A string of capitals states the bases alone. e = 2'-O-(2-methoxyethyl) (MOE); [5mC] = 5-methylcytosine; d = 2'-deoxy (DNA)
Tests used:
mir-15a miRNA = assay: pGL3-mir-15a sensor luciferase assay in HeLa cells; type: cell-based, human; settings: pGL3-mir-15a sensor-expressing HeLa cells
From the text: In order to assess the ability of miRNAs to bind predicted miRNA binding sites and regulate the expression of the luciferase reporter, in some embodiments, expression systems based on the pGL3-Control (Promega Corp., Madison Wis.) reporter vector and comprising either a mir-15a, mir-21, or a mir-23b miRNA binding site were developed and used in transient transfections of HeLa cells to determine whether the endogenous mir-15a, mir-21, or mir-23b miRNAs, respectively, could repress luciferase reporter gene expression.
The pGL3-mir-15a sensor plasmid was created by cloning the sequence ([…]; SEQ ID NO: 369), complementary to the mir-15a miRNA, into the Xba site of the pGL3-Control plasmid, placing the potential miRNA-binding site in the 3′UTR of the luciferase reporter. This reporter plasmid was used to transfect HeLa cells and it was observed that the endogenous mir-15a miRNA was able to inhibit luciferase expression from the pGL3-mir-15a sensor plasmid. Thus, to further evaluate the ability of the mir-15a miRNA to bind this target site encoded by the pGL3-mir-15a sensor plasmid, and to assess the ability of oligomeric compounds to interfere with mir-15a-mediated silencing, pGL3-mir-15a sensor-expressing HeLa cells were treated with varying concentrations (3-, 10- or 30 nM) of the following oligomeric compounds: ISIS Number 327951 (SEQ ID NO: 369) is a uniform 2′-MOE compound targeting the mature mir-15a-1 miRNA. ISIS Numbers 356213 (SEQ ID NO: 878), 356215 (SEQ ID NO: 879), 356216 (SEQ ID NO: 880), 356218 (SEQ ID NO: 881), 356221 (SEQ ID NO: 882), 356227 (SEQ ID NO: 883) and 356229 (SEQ ID NO: 884) are phosphorothioate, uniform 2′-MOE oligomeric compounds designed and synthesized to target the entire length of the mir-15a pri-miRNA molecule (described in detail in Example 28, below). […] The data presented in Table 42 are the average of three trials and are presented as percent untreated control (luciferase plasmid only, not treated with oligomeric compound) luciferase expression, normalized to pRL-CMV levels.

T47D cells = assay: Cell cycle assay in T47D cells; type: cell-based, human; settings: 150 nM, 48 hours, relative to untreated control
Procedure: BJ cells were routinely cultured in MEM high glucose with 2 mM L-glutamine and Earle's BSS adjusted to contain 1.5 g/L sodium bicarbonate and supplemented with 10% fetal bovine serum, 0.1 mM non-essential amino acids and 1.0 mM sodium pyruvate (all media and supplements from Invitrogen Life Technologies, Carlsbad, Calif.). B16-F10 cells were routinely cultured in DMEM high glucose (Invitrogen Life Technologies, Carlsbad, Calif.) supplemented with 10% fetal bovine serum (Invitrogen Life Technologies, Carlsbad, Calif.). T47D cells were cultured in DMEM High glucose media (Invitrogen Life Technologies, Carlsbad, Calif.) supplemented with 10% fetal bovine serum. […] Cells were plated on collagen-coated 24-well plates (Falcon-Primaria #3047, BD Biosciences, Bedford, Mass.) at approximately 50,000 cells per well and allowed to attach to wells overnight.
In further studies, additional cell lines were treated with oligomeric compounds targeted against miRNAs to assess the effects of each oligomeric compound on cell cycling. BJ, B16, T47D, and HeLa cells were cultured and transfected as described above. […] T47Dp53 cells are T47D cells that have been transfected with and selected for maintenance of a plasmid that expresses a wildtype copy of the p53 gene (for example, pCMV-p53; Clontech, Palo Alto, Calif.), using standard laboratory procedures. BJ cells were treated with 200 nM of each oligomeric compound, and T47D, T47Dp53, HeLa, and B16 cells were treated with 150 nM of each oligomeric compound. The human foreskin fibroblast BJ cell line represents a non-cancer cell line, while HeLa, T47D, T47Dp53 cells and the mouse melanoma cell line B16-F10 represent cancerous cell lines. For comparison, oligomeric compounds ISIS 183891 (SEQ ID NO: 847) and ISIS 285717 ([…]; herein incorporated as SEQ ID NO: 857), both targeting the kinesin-like 1/Eg5 mRNA, involved in cell cycling, were used as positive controls. The random-mer ISIS 29848 was used as a negative control. Additionally, the oligomeric compounds ISIS Number 25690 ([…]; herein incorporated as SEQ ID NO: 858) and ISIS Number 25691 ([…]; herein incorporated as SEQ ID NO: 859), targeted to nucleotides 3051-3070 and 3085-3104, respectively, of the mRNA encoding the Drosha RNase III (GenBank Accession NM_013235.2, incorporated herein as SEQ ID NO: 860) were also tested. ISIS Number 25690 and ISIS Number 25691 are 5-10-52′-MOE gapmer compounds, 20 nucleotides in length, with phosphorothioate internucleoside linkages throughout the oligomeric compound. All cytidine residues are 5-methylcytidines. Transfections were performed using the methods described herein. Cells were prepared for flow cytometry 48-hours after oligonucleotide treatment. Results of these studies are shown in Table 35, where data are expressed as percentage of cells in each phase relative to the untreated control cells in that phase.

| Substance | Relative luciferase activity (mir-15a miRNA; 3 nM) | Relative luciferase activity (mir-15a miRNA; 10 nM) | Relative luciferase activity (mir-15a miRNA; 30 nM) | % cells in cell cycle phase G1 (T47D cells) [%] | % cells in cell cycle phase G2/M (T47D cells) [%] | % cells in cell cycle phase S (T47D cells) [%] | % cells in cell cycle phase aneuploid (T47D cells) [%] | % cells in cell cycle phase subG1 (T47D cells) [%] |
| --- | --- | --- | --- | --- | --- | --- | --- | --- |
| 327901 (antisense eT*eG*eA*eG*e[5mC]*eT*eA*e[5mC]*eA*eG*eT*eG*e[5mC]*eT*eT*e[5mC]*eA*eT*e[5mC]*eT*e[5mC]*eA) [compound 327901] | 83.6 | 96.6 | 88.2 | – | – | – | – | – |
| 327902 (antisense eG*eG*e[5mC]*eT*eG*eT*e[5mC]*eA*eA*eT*eT*e[5mC]*eA*eT*eA*eG*eG*eT*e[5mC]*eA*eG) [compound 327902] | – | – | – | 75 | 116 | 120 | 162 | 102 |
| 327905 (antisense e[5mC]*eA*eG*eA*e[5mC]*eT*e[5mC]*e[5mC]*eG*eG*eT*eG*eG*eA*eA*eT*eG*eA*eA*eG*eG*eA) [compound 327905] | – | – | – | 97 | 103 | 101 | 164 | 81 |
| 327951 (antisense e[5mC]*eA*e[5mC]*eA*eA*eA*e[5mC]*e[5mC]*eA*eT*eT*eA*eT*eG*eT*eG*e[5mC]*eT*eG*e[5mC]*eT*eA) [compound 327951] | 151.0 | 207.6 | 137.1 | – | – | – | – | – |
| 328759 (antisense eG*eA*eG*eG*eG*dA*dT*dT*dG*dT*dA*dT*dG*dA*dA*e[5mC]*eA*eT*e[5mC]*eT) [compound 328759] | – | – | – | 86 | 122 | 87 | 223 | 123 |
| 342673 (antisense eA*eG*eA*e[5mC]*eT*eA*eG*e[5mC]*eG*eG*eT*eA*eT*e[5mC]*eT*eT*eT*eA*eT*e[5mC]*e[5mC]*e[5mC]) [compound 342673] | 104.5 | 82.6 | 85.7 | – | – | – | – | – |

Source: patent US8178506B2, “Oligomeric compounds and compositions for use in modulation of small non-coding RNAs” (Regulus Therapeutics Inc., priority 2003, dated 2012)
